# Values joined by “and” are separate entries in the source; they are usually repeats but may differ in a detail not shown here. Identical values can stand only once.
# Experiment: photoluminescence quantum yield (fraction); solvent given as SMILES
smiles,measurement,setting,value
c1ccc(-c2pc3ccccc3s2)cc1 (configuration not stated),photoluminescence quantum yield,in CC#N,0.044
Cc1ccc(N2C(c3ccccc3NS(=O)(=O)c3ccc(C)cc3)=NC(c3ccccc3)C2c2ccccc2)cc1 (configuration not stated),photoluminescence quantum yield,in Cc1ccccc1,0.004
CC1(C)c2ccccc2N(c2ccc(-c3ccc(C#N)nc3)cc2)c2ccccc21,photoluminescence quantum yield,in Cc1ccccc1,0.345
same,photoluminescence quantum yield,in N#Cc1ccc2c(c1)c1ccccc1n2-c1cccc(-n2c3ccccc3c3ccccc32)c1,0.916
COc1ccc(-c2cc3c(s2)c(C(C)=O)cc(=O)n3C)cc1,photoluminescence quantum yield,in CC#N,0.84
same,photoluminescence quantum yield,in ClCCl,0.98
CC(C)(C)c1ccc(C2=C(c3ccc(C(C)(C)C)cc3)[Si](c3ccccc3)(c3ccccc3)c3ccccc32)cc1,photoluminescence quantum yield,in C1CCOC1,0.015
COc1ccccc1C1=[N+]2C(=C(c3ccc(I)cc3)c3ccc(-c4ccccc4OC)n3[B-]2(F)F)C=C1,photoluminescence quantum yield,in ClC(Cl)Cl,0.08 and 0.07
CCCCCCCCCCCCN1C(=O)c2c(c3ccc4cc(-c5ccc(Cl)cc5)c(OC)cc4c3c3c2ccc2cc(-c4ccc(Cl)cc4)c(OC)cc23)C1=O,photoluminescence quantum yield,in ClCCl,0.144
CCCCOc1ccc2cc(-c3ccc(C)cc3)c(=O)oc2c1,photoluminescence quantum yield,in C1CCOC1,0.611
same,photoluminescence quantum yield,in CCCCCC,0.564
same,photoluminescence quantum yield,in CCO,0.597
same,photoluminescence quantum yield,in CS(C)=O,0.585
CCOC(=O)c1ccc(C2=C(c3ccccc3)c3sc4ccccc4[n+]3[B-](F)(F)O2)cc1,photoluminescence quantum yield,in C1CCOC1,0.011
CCCCOC(=O)c1cc(Oc2ccc(OC)cc2)c2c3c(Cl)cc4c5c(cc(Cl)c(c6c(Oc7ccc(OC)cc7)cc(C(=O)OCCCC)c1c26)c53)C(=O)N(c1c(C(C)C)cccc1C(C)C)C4=O,photoluminescence quantum yield,in Cc1ccccc1,0.55
F[B-]1(F)OC(c2ccc(C(F)(F)F)cc2)=Cc2c3ccccc3cc[n+]21,photoluminescence quantum yield,in ClC(Cl)Cl,0.026
CCCCCCCCCCOc1ccc2c3c(oc2c1)C1=C2C(=O)N4C=Cc5c(oc6cc(OCCCCCCCCCC)ccc56)C4=C2C(=O)N1C=C3,photoluminescence quantum yield,in CN(C)C=O,0.5
same,photoluminescence quantum yield,in ClC(Cl)Cl,0.7
C(=C\c1ccc(-c2nnc(-c3ccccc3)o2)cc1)/c1ccc(-c2nnc(-c3ccccc3)o2)cc1,photoluminescence quantum yield,in CN(C)C=O,0.8
CCCCCCCCc1ccc(-c2ccc(/C=C(\C#N)c3ccc(-c4cccc5cccc(-c6ccc(/C(C#N)=C/c7ccc(-c8ccc(CCCCCCCC)cc8)cc7)cc6)c45)cc3)cc2)cc1,photoluminescence quantum yield,in Cc1ccccc1,0.12
CCCCN1\C(=C/C=C/C=C/C2=[N+](CCCC)c3ccc4ccccc4c3C2(C)C)C(C)(C)c2c1ccc1ccccc21,photoluminescence quantum yield,in CS(C)=O,0.291
CCC1(CC)c2ccccc2-c2ccc(C#Cc3cc(C#Cc4ccc5c(c4)C(CC)(CC)c4ccccc4-5)c4ccc5c(C#Cc6ccc7c(c6)C(CC)(CC)c6ccccc6-7)cc(C#Cc6ccc7c(c6)C(CC)(CC)c6ccccc6-7)c6ccc3c4c65)cc21,photoluminescence quantum yield,in Cc1ccccc1,0.64
N#C/C=C/c1ccc2ccc3cccc4ccc1c2c34,photoluminescence quantum yield,in C1CCOC1,0.72
same,photoluminescence quantum yield,in C1COCCO1,0.63
same,photoluminescence quantum yield,in CC#N,0.32
same,photoluminescence quantum yield,in CC(C)=O,0.62
same,photoluminescence quantum yield,in CCCCCC,0.53
same,photoluminescence quantum yield,in CCOC(C)=O,0.62
same,photoluminescence quantum yield,in CO,0.44
same,photoluminescence quantum yield,in Cc1ccccc1,0.55
CN1/C(=C/C=C/C2=[N+](C)c3ccccc3C2(C)C)Sc2ccccc21,photoluminescence quantum yield,in CS(C)=O,0.07
CC1=CC(C)=[N+]2C1=C(c1c3ccccc3cc3ccccc13)c1c(C)cc(C)n1[B-]2(F)F,photoluminescence quantum yield,in CC#N,0.006
same,photoluminescence quantum yield,in CCCCCC,0.99
same,photoluminescence quantum yield,in CCO,0.038
same,photoluminescence quantum yield,in CN(C)C=O,0.011
same,photoluminescence quantum yield,in Cc1ccccc1,0.92
same,photoluminescence quantum yield,in ClCCl,0.072
COCCOCCOCCN1C(=O)c2cc(NCCOCCO)c3c4c(cc(NCCOCCO)c(c24)C1=O)C(=O)N(CCOCCOCCOC)C3=O,photoluminescence quantum yield,in CO,0.37
same,photoluminescence quantum yield,in ClC(Cl)Cl,0.56
same,photoluminescence quantum yield,in O,0.031
Cc1cc(C#Cc2ccccc2)c2ccc3c(C#Cc4ccccc4)cc(C#Cc4ccccc4)c4ccc1c2c43,photoluminescence quantum yield,in CS(C)=O,0.72
same,photoluminescence quantum yield,in ClC(Cl)(Cl)Cl,0.56
